{"source": "patent US4868195A", "about": "“Novel enolamides, pharmaceutical compositions and methods of use thereof for activity as modulators of the arachidonic acid cascade” (Warner-Lambert Company, priority 1988, dated 1989)", "note": "Several values for one entry are separate records, joined by “and”; a condition that tells them apart may be missing. Identical values can stand only once."}
{"biological_target": "T1, leukotriene receptor (guinea pig lung membranes) (Cavia porcellus, UniProt Q2NNR5)", "T1 construct": "20 mg original tissue wet weight of guinea pig lung; tissue Kuiper Rabbit Farm, Gary, IN (animals); host or cells: guinea pig lung, crude membranes", "T1 sequence (Q2NNR5 1-340)": "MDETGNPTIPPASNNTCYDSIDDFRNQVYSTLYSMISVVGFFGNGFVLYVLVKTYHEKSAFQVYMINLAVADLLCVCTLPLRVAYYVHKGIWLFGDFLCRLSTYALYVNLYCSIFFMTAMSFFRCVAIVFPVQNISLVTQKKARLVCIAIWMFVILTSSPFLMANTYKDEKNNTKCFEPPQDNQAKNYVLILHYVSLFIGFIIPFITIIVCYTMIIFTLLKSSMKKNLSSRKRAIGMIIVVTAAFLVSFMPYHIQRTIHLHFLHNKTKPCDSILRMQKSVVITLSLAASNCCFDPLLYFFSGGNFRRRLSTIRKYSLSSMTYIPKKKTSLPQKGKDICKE", "assay": "Binding of ^3 H-Leukotriene D4 to Guinea Pig Lung Membranes (RBL)", "details": "0.2 nM ^3 H-LTD4, 60 min, 25° C.; read-out: Concentration (M) for 50.0 % Inhibition, IC (RBL)", "experimental": "Additionally, the activity, of the compounds having the Formula I of the present invention is determined by the well known leukotriene receptor binding assay that is described by R. F. Bruns, W. J. Thomsen and T. A. Pugsley in Life Sciences, 33, 645 (1983) or the Herxheimer in vivo antiallergy test described in H. Herxheimer, J. Physiol. (London), Vol. 177, p. 251 (1952).\nBinding of ^3 H-Leukotriene D4 to Guinea Pig Lung Membranes (RBL)\n[14,15-^3 H]leukotriene D4 (^3 H-LTD4) (25 Ci/mmol and 40 Ci/mmol) is purchased from New England Nuclear. Unlabeled LTC4 is a gift of Ono Pharmaceuticals (Japan). LTC4, LTD4, and LTE4 are purchased as methyl esters from Paesel GmbH (Frankfurt, W. Germany). Concentrations of the Paesel leukotrienes are calculated from their absorbance at 280 nm. Leukotriene esters are saponified overnight under N2 in 3.3% potassium carbonate at room temperature. Tritiated leukotrienes are stored as received from New England Nuclear at -20° C. Ono LTC4 (5 μg/ml) is stored at -60° C. in phosphate buffer pH 6.8. Saponified Paesel leukotrienes are stored at -60° C. in 3.3% potassium carbonate (pH 9.0-9.5). Aliquots of leukotrienes are taken from stock solutions immediately after thawing, after which the stock solutions are immediately refrozen. 2-Amino-2-(hydroxymethyl)-1,3-propanediol (Tris) is Sigma pH 7.7 pre-set crystals, and dimethylsulfoxide is Aldrich Gold Label.\nPreparation of crude lung membranes\nTwo pairs of lungs (1.3 g) from freshly sacrificed 300 g male guinea pigs (older animals gave substantially lower binding) from Kuiper Rabbit Farm, Gary, IN are disrupted with a Polytron PT 10 (setting 4) for 30 seconds in 20 ml ice-cold 50 mM Tris adjusted with HCl to pH 7.7 at 25° C. (Tris buffer), filtered through a single layer of gauze to remove connective tissue, and centrifuged at 50,000 xg for ten min. The pellet is resuspended by homogenization with a Polytron in 20 ml Tris buffer, centrifuged at 50,000 xg for ten min., resuspended, incubated at 37° C. for 30 minutes, and centrifuged again. The final pellet is resuspended in Tris buffer and either used fresh or stored at -70° C.\nAll incubations are in triplicate for 60 minutes at 25° C. in 12×75 mm polystyrene tubes containing 1 ml Tris buffer with 20 mg original tissue wet weight of guinea pig lung nmembranes, 0.2 nM ^3 H-LTD4 (6,000-11,000 cpm), 10 mM MgCl2, and 1% dimethylsulfoxide Leukotrienes are diluted in Tris buffer. All other test compounds dissolved at 10 mM in dimethylsulfoxide on the same day as the experiment, and diluted in dimethylsulfoxide to 100× the final incubation concentration. Control incubations receive an equal volume (10 μl) of dimethylsulfoxide; the resulting concentration of dimethylsulfoxide had no effect on binding. ^3 H-LTD4 is diluted to 2 nM in Tris buffer. The membrane suspension (20 mg/0.89 ml) contains sufficient MgCl2 to give 10 mM final concentration in the incubation. […] All additions are performed at 0° C. Immediately after the last addition, the incubation is initiated by agitating the rack of tubes on a vortex mixer and warming to 25° C. in a water bath. Tubes are vortexed at least once more during the incubation to ensure that the membranes remained suspended. Incubations are terminated after 60 minutes by filtering under reduced pressure through 25 mm Whatman GF/B filters followed by rapid washing three times with 4 ml of ice-cold Tris buffer. Filters are added to scintillation vials with 8 ml Formula 947 (New England Nuclear), left overnight, shaken, and the radioactivity counted in a scintillation counter (efficiency 40%). Nonspecific binding, defined as binding of ^3 H-LTD4 in the presence of 100 nM LTC4, is 300-500 cpm for all lots of ^3 H-LTD4. Binding to the filters in the absence of tissue is about 100 cpm, and is not affected by unlabeled LTC4. Specific binding, defined as total binding minus nonspecific binding, varied considerably from lot to lot of ^3 H-LTD4. […]"}
{"compound": "O=C(Nc1ccccc1CCc1ccc(Cl)c(Cl)c1)C1=C(O)c2ccccc2S(=O)(=O)C1", "note": "[Example 8, N-[2-[2-(3,4-Dichlorophenyl)ethyl]phenyl]-4-hydroxy-2H-1-benzothiopyran-3-carboxamide, 1,1-dioxide]", "IC50": "4.21e-06 M"}
{"compound": "O=C(Nc1ccc(CCc2ccccc2)cc1)C1CS(=O)(=O)c2ccccc2C1=O", "note": "(centres unmarked) [Example 16, 3,4-Dihydro-4-oxo-N-[(4-(2-phenyl)ethyl]-phenyl]-2H-1-benzothiopyran-3-carboxamide, 1,1-dioxide]", "IC50": "1.28e-05 M"}
{"compound": "COc1ccc(CCc2ccc(NC(=O)C3=C(O)c4ccccc4S(=O)(=O)C3)cc2)cc1OC", "note": "[Example 18, N-[4-[2-(3,4-Dimethoxyphenyl)ethyl]phenyl]-4-hydroxy-2H-1-benzothiopyran-3-carboxamide, 1,1-dioxide]", "IC50": "7.19e-05 M"}
{"compound": "COc1ccc(CCc2ccc(NC(=O)C3CS(=O)(=O)c4ccccc4C3=O)cc2)cc1O", "note": "(centres unmarked) [Example 27, 3,4-Dihydro-N-[4-[2-(3-hydroxy-4-methoxyphenyl)ethyl]phenyl]-4-oxo-2H-1-benzothiopyran-3-carboxamide, 1,1-dioxide]", "IC50": "0.000106 M and 0.00012 M"}
{"compound": "COc1ccc(CCc2ccc(NC(=O)C3CS(=O)(=O)c4ccccc4C3=O)cc2)cc1", "note": "(centres unmarked) [Example 41]", "IC50": "1.26e-05 M"}
{"compound": "O=C(Nc1ccc(CCc2ccc(-c3ccccc3)cc2)cc1)C1CS(=O)(=O)c2ccccc2C1=O", "note": "(centres unmarked) [Example 46, N-[4-[2-([1,1'-biphenyl]-4-yl)ethyl]phenyl]-3,4-dihydro-4-oxo-2H-1-benzothiopyran-3-carboxamide, 1,1-dioxide]", "IC50": "2.15e-05 M and 1.87e-05 M"}
{"compound": "CCCCOc1ccc(CCc2ccc(NC(=O)C3CS(=O)(=O)c4ccccc4C3=O)cc2)cc1", "note": "(centres unmarked) [Example 48]", "IC50": "6.48e-06 M and 1.19e-05 M and 2e-05 M and 1.29e-05 M"}
{"compound": "O=C(Nc1ccc(CCc2ccc3ccccc3c2)cc1)C1=C(O)c2ccccc2S(=O)(=O)C1", "note": "[Example 51, 4-Hydroxy-N-[4-[2-(2-naphthalenyl)ethyl]phenyl]-2H-1-benzothiopyran-3-carboxamide, 1,1-dioxide]", "IC50": "3.84e-06 M"}
{"compound": "Cc1ccc(CCc2ccc(NC(=O)C3CS(=O)(=O)c4ccccc4C3=O)cc2)cc1C", "note": "(centres unmarked) [Example 53, N-[4-[2-(3,4-Dimethylphenyl)ethyl]phenyl]-3,4-dihydro-4-oxo-2H-1-benzothiopyran-3-carboxamide, 1,1-dioxide]", "IC50": "3.54e-06 M"}
{"compound": "O=C(Nc1ccc(CCc2ccc(Cl)cc2)cc1)C1CS(=O)(=O)c2ccccc2C1=O", "note": "(centres unmarked) [Example 54, N-[4-[2-(4-Chlorophenyl)ethyl]phenyl]-3,4-dihydro-4-oxo-2H-1-benzothiopyran-3-carboxamide, 1,1-dioxide]", "IC50": "1.09e-05 M"}
{"compound": "CCCCCCCCCCc1ccc(NC(=O)C2CS(=O)(=O)c3ccccc3C2=O)cc1", "note": "(centres unmarked) [Example 60, N-(4-Decylphenyl)-3,4-dihydro-4-oxo-2H-1-benzoothiopyran-3-carboxamide, 1,1-dioxide]", "IC50": "1.21e-05 M"}
{"compound": "O=C(Nc1ccc(CCc2c(F)c(F)c(F)c(F)c2F)cc1)C1=C(O)c2ccccc2S(=O)(=O)C1", "note": "[Example 64, N-[4-[2-(2,3,4,5,6-Pentafluorophenyl)ethyl]phenyl]-4-hydroxy-2H-1-benzothiopyran-3-carboxamide, 1,1-dioxide]", "IC50": "6.11e-06 M and 9.49e-06 M and 2.82e-06 M"}
{"compound": "O=C(Nc1ccc(C=Cc2ccc([N+](=O)[O-])cc2)cc1)C1CS(=O)(=O)c2ccccc2C1=O", "note": "(centres unmarked) [Example 67, 2H-1-Benzothiopyran-3-carboxamide, 3,4-dihydro-N-[4-[2-(4-nitrophenyl)ethenyl]phenyl]-4-oxo-, 1,1-dixide]", "IC50": "6.56e-06 M and 1.04e-05 M"}
{"compound": "O=C(Nc1ccc(CCc2cccc3ccccc23)cc1)C1=C(O)c2ccccc2S(=O)(=O)C1", "note": "[Example 73, 2H-1-Benzothiopyran-3-carboxamide, 4-hydroxy-N-[4-[2-(1-naphthalenyl)ethyl]phenyl], 1,1-dioxide]", "IC50": "3.84e-06 M"}
{"compound": "O=C(Nc1ccc(C=Cc2ccc(Cl)c(Cl)c2)cc1)C1=C(O)c2ccccc2S(=O)(=O)C1", "note": "[Example 74, 2H-1-Benzothiopyran-3-carboxamide, N-[4-[2-(3,4-dichlorophenyl)ethenyl]phenyl]-4-hydroxy-, 1,1-dioxide]", "IC50": "5.27e-06 M"}
{"compound": "O=C(Nc1cccc(CCc2ccc(Cl)c(Cl)c2)c1)C1=C(O)c2ccccc2S(=O)(=O)C1", "note": "[Example 76, 2H-1-Benzothiopyran-3-carboxamide, N-[3-[2-(3,4-dichlorophenyl)ethyl]phenyl]-4-hydroxy-, 1,1-dioxide]", "IC50": "3e-06 M"}
{"compound": "O=C(Nc1ccc(Cc2ccc(Cl)c(Cl)c2)cc1)C1=C(O)c2ccccc2S(=O)(=O)C1", "note": "[Example 78, 2H-1-Benzothiopyran-3-carboxamide, N-[4-[(3,4-dichlorophenyl)methyl]phenyl]-4-hydroxy-, 1,1-dioxide]", "IC50": "4.82e-06 M"}
{"compound": "O=C(Nc1ccc(CCCc2ccc(Cl)c(Cl)c2)cc1)C1=C(O)c2ccccc2S(=O)(=O)C1", "note": "[Example 79, 2H-1-Benzothiopyran-3-carboxamide, N-[4-[3-(3,4-dichlorphenyl)propyl]phenyl]-4-hydroxy-, 1,1-dioxide]", "IC50": "4.13e-07 M and 5.3e-07 M"}
{"compound": "O=C(Nc1ccccc1CCCc1ccc(Cl)c(Cl)c1)C1=C(O)c2ccccc2S(=O)(=O)C1", "note": "[Example 80, 2H-1-Benzothiopyran-3-carboxamide, N-[2-[3-(3,4-dichlorophenyl)propyl]phenyl]-4-hydroxy-, 1,1-dioxide]", "IC50": "1.27e-05 M"}
{"compound": "O=C(Nc1ccccc1Cc1ccc(Cl)c(Cl)c1)C1=C(O)c2ccccc2S(=O)(=O)C1", "note": "[Example 81, 2H-1-Benzothiopyran-3-carboxamide, N-[2-[(3,4-dichlorophenyl)methyl]phenyl]-4-hydroxy, 1,1-dioxide]", "IC50": "1.01e-05 M"}
{"compound": "COc1cc(CCc2ccc(NC(=O)C(=O)c3sc4ccccc4c3O)cc2)ccc1O", "note": "[Example 142, Benzo[b]thiophene-2-acetamide, 3-hydroxy-N-[4-[2-(4-hydroxy-3-methoxyphenyl)ethyl]phenyl]-α-oxo-]", "IC50": "6.1e-05 M"}
{"compound": "COc1ccc(CCc2ccc(NC(=O)c3sc4ccccc4c3O)cc2)cc1OC", "note": "[Example 143, Benzo[b]thiophene-2-carboxamide, N-[4-[2-(3,4-dimethoxphenyl)ethyl]phenyl]-3-hydroxy]", "IC50": "1.21e-05 M"}
{"compound": "O=C(Nc1cccc(CCc2ccc(Cl)c(Cl)c2)c1)c1sc2ccccc2c1O", "note": "[Example 146, Benzo[b]thiophene-2-carboxamide, N-[3-[2-(3,4-dichlorophenyl)ethyl]phenyl]-3-hydroxy]", "IC50": "1.02e-06 M"}
